Assay [1] addresses T1, Beta-secretase 1 (Homo sapiens, UniProt P56817). In words: Inhibition of recombinant human BACE1 at 0.2 uM by FRET analysis.
For assay [2], the target named is T1, Beta-secretase 1. As to the kind of experiment: Inhibition of recombinant human BACE1 at 2 uM by FRET analysis.
In assay [3] the target is T1, Beta-secretase 1. In words: Inhibition of recombinant human BACE1 by FRET analysis.
A further assay deals with T2, Renin (Homo sapiens, UniProt P00797).
T2 sequence (P00797 whole entry): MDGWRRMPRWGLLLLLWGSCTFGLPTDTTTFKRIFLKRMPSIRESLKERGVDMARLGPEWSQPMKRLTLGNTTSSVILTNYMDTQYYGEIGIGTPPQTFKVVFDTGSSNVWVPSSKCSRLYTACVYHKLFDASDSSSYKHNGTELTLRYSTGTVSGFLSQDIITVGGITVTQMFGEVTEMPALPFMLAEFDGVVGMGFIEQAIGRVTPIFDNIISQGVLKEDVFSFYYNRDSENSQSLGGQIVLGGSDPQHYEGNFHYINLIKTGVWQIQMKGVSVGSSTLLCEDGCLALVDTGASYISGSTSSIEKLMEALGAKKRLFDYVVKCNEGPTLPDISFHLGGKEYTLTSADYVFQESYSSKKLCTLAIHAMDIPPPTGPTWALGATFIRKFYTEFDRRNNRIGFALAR
In words: Inhibition of human renin.

The structures appear in SMILES notation.

T1 sequence (P56817 whole entry): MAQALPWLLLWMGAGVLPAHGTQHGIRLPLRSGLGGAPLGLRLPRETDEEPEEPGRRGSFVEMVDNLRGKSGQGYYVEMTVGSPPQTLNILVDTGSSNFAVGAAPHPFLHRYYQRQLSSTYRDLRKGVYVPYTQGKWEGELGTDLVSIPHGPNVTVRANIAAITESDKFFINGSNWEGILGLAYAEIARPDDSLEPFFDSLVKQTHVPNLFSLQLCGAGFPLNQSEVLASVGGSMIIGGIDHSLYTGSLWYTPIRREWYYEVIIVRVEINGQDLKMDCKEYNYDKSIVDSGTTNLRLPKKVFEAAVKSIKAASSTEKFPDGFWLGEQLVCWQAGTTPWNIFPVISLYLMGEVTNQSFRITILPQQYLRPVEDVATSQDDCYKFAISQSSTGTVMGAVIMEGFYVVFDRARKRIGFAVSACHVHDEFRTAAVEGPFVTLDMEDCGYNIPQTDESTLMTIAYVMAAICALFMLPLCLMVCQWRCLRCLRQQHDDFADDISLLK

A word on the inhibition: it is the percentage by which the read-out fell short of the control. In the case of `C[C@@H](NC(=O)c1cc(C(=O)N[C@@H](Cc2ccccc2)[C@@H](O)C(=O)Nc2nncs2)cc(N(C)S(C)(=O)=O)c1)c1ccccc1`, the values for the inhibition on Beta-secretase 1 [1] and at Beta-secretase 1 [2] were 39% and 83%, respectively.

For the compound `C[C@@H](NC(=O)c1cc(C(=O)N[C@@H](Cc2ccccc2)[C@@H](O)C(=O)Nc2ncc([N+](=O)[O-])s2)cc(N(C)S(C)(=O)=O)c1)c1ccccc1`, the results for the inhibition at Beta-secretase 1 [1] and on Beta-secretase 1 [2] were 73% and 96%, respectively.

Regarding `COC(=O)c1cnc(NC(=O)[C@H](O)[C@H](Cc2ccccc2)NC(=O)c2cc(C(=O)N[C@H](C)c3ccccc3)cc(N(C)S(C)(=O)=O)c2)s1`, the inhibition at Beta-secretase 1 [1] is 56%; on Beta-secretase 1 [2] it was 87%.

Regarding `C[C@@H](NC(=O)c1cc(C(=O)N[C@@H](Cc2ccccc2)[C@H](O)C(=O)Nc2nccs2)cc(N(C)S(C)(=O)=O)c1)c1ccccc1`, the inhibition at Beta-secretase 1 [2] was found to be 19%.

On to `COC(=O)c1csc(NC(=O)[C@H](O)[C@H](Cc2ccccc2)NC(=O)c2cc(C(=O)N[C@H](C)c3ccccc3)cc(N(C)S(C)(=O)=O)c2)n1`, for which, at Beta-secretase 1 [2], the inhibition stood at 30%.

Consider `C[C@@H](NC(=O)c1cc(C(=O)N[C@@H](Cc2ccccc2)[C@H](O)C(=O)Nc2nncs2)cc(N(C)S(C)(=O)=O)c1)c1ccccc1`, for which the inhibition on Beta-secretase 1 [2] stood at 38%.

As for `C[C@@H](NC(=O)c1cc(C(=O)N[C@@H](Cc2ccccc2)[C@@H](O)C(=O)Nc2nccs2)cc(N(C)S(C)(=O)=O)c1)c1ccccc1`, the inhibition on Beta-secretase 1 [2] was determined as 48%.

The IC50 is the concentration needed to halve the response being measured. Turning to `C[C@@H](NC(=O)c1cc(C(=O)N[C@@H](Cc2ccccc2)[C@@H](O)C(=O)Nc2nnc(Br)s2)cc(N(C)S(C)(=O)=O)c1)c1ccccc1`, the inhibition on Beta-secretase 1 [1] was determined as 79%; at Beta-secretase 1 [2], 97%. In addition, the IC50 at Beta-secretase 1 [3] was 26 nM.

`C[C@@H](NC(=O)c1cc(C(=O)N[C@@H](Cc2ccccc2)[C@@H](O)C(=O)Nc2nnc(C(F)(F)F)s2)cc(N(C)S(C)(=O)=O)c1)c1ccccc1`: the inhibition on Beta-secretase 1 [1] is 75%; on Beta-secretase 1 [2], 96%.

As for `C[C@@H](NC(=O)c1cc(C(=O)N[C@@H](Cc2ccccc2)[C@@H](O)C(=O)Nc2nnc(C(C)(C)C)s2)cc(N(C)S(C)(=O)=O)c1)c1ccccc1`, the inhibition at Beta-secretase 1 [2] worked out at 48%.

With `C[C@@H](NC(=O)c1cc(C(=O)N[C@@H](Cc2ccccc2)[C@H](O)CNC2CC2)cc(N(C)S(C)(=O)=O)c1)c1ccccc1`, the half-maximal inhibitory concentration (IC50) on Renin was greater than 50000 nM.

With `CCSc1nnc(NC(=O)[C@H](O)[C@H](Cc2ccccc2)NC(=O)c2cc(C(=O)N[C@H](C)c3ccccc3)cc(N(C)S(C)(=O)=O)c2)s1`, the inhibition was 45% on Beta-secretase 1 [1] and 86% on Beta-secretase 1 [2].

In the case of `C[C@@H](NC(=O)c1cc(C(=O)N[C@@H](Cc2ccccc2)[C@H](O)C(=O)Nc2nc3ccccc3s2)cc(N(C)S(C)(=O)=O)c1)c1ccccc1`, at Beta-secretase 1 [2], the inhibition is 5%.

With `C[C@@H](NC(=O)c1cc(C(=O)N[C@@H](Cc2ccccc2)[C@@H](O)C(=O)Nc2nnc(-c3ccncc3)s2)cc(N(C)S(C)(=O)=O)c1)c1ccccc1`, the inhibition at Beta-secretase 1 [2] was determined as 49%.

As to `Cc1nnc(NC(=O)[C@@H](O)[C@H](Cc2ccccc2)NC(=O)c2cc(C(=O)N[C@H](C)c3ccccc3)cc(N(C)S(C)(=O)=O)c2)s1`, the inhibition on Beta-secretase 1 [2] was determined as 58%.

As for `CSc1nnc(NC(=O)[C@H](O)[C@H](Cc2ccccc2)NC(=O)c2cc(C(=O)N[C@H](C)c3ccccc3)cc(N(C)S(C)(=O)=O)c2)s1`, the inhibition at Beta-secretase 1 [1] came out at 43%; at Beta-secretase 1 [2], 84%.

In the case of `CCc1nnc(NC(=O)[C@H](O)[C@H](Cc2ccccc2)NC(=O)c2cc(C(=O)N[C@H](C)c3ccccc3)cc(N(C)S(C)(=O)=O)c2)s1`, the inhibition worked out at 51% on Beta-secretase 1 [1] and 88% at Beta-secretase 1 [2].

In the case of `C[C@@H](NC(=O)c1cc(C(=O)N[C@@H](Cc2ccccc2)[C@@H](O)C(=O)Nc2nc3ccccc3s2)cc(N(C)S(C)(=O)=O)c1)c1ccccc1`, the inhibition on Beta-secretase 1 [2] amounted to 29%.

Consider `C[C@@H](NC(=O)c1cc(C(=O)N[C@@H](Cc2ccccc2)[C@@H](O)C(=O)Nc2ncc(Br)s2)cc(N(C)S(C)(=O)=O)c1)c1ccccc1`, for which the inhibition on Beta-secretase 1 [2] is 78%.

With `Cc1nnc(NC(=O)[C@H](O)[C@H](Cc2ccccc2)NC(=O)c2cc(C(=O)N[C@H](C)c3ccccc3)cc(N(C)S(C)(=O)=O)c2)s1`, the values for the inhibition on Beta-secretase 1 [1] and on Beta-secretase 1 [2] were 50% and 90%, respectively.

As for `C[C@@H](NC(=O)c1cc(C(=O)N[C@@H](Cc2ccccc2)[C@@H](O)C(=O)Nc2nnc(-c3ccccc3)s2)cc(N(C)S(C)(=O)=O)c1)c1ccccc1`, the inhibition on Beta-secretase 1 [2] was 43%.
